This is an account of results in patent US8383622B2 (priority 2007, dated 2013).

The target in one data set is Human 11β-HSD1 (Homo sapiens, UniProt P28845). Put plainly: Evaluation of compound against human 11β-HSD1 (HTRF cortisol assay, cortisone substrate). To be noted: cortisone 5 μM, 37° C. 2 hours. The class given is biochemical. The method, then:
Evaluation Method of […] Inhibitor (Evaluation of Compound Against Human 11β-HSD1)
(§1) After preincubating an inhibitor in a reaction solution consisting of 50 mM sodium phosphate buffer (pH 7.5), bovine serum albumin (1 mg/mL), NADPH (0.42 mg/mL), glucose-6-phosphate (1.26 mg/mL), glucose-6-phosphate dehydrogenase and an enzyme at room temperature for 30), (Inutes, cortisone (5 μM) was added as a substrate (total amount 10 μL). After reacting at 37° C. for 2 hours, an XL-665-labeled cortisol solution (5 μL), and a Cryptate-labeled anti-cortisol antibody solution (5 μL) were added. The reaction was performed at room temperature for 2 hours, and fluorescence intensity (HTRF method) was measured. A cortisol concentration was calculated from a standard curve prepared using a known concentration of cortisol for each assay.
Taking a concentration of cortisol generated in the absence of the inhibitor as a control value, 50% inhibitory concentration (IC50 value) of the inhibitor against 11β-HSD1 was calculated from an inhibition curve plotting inhibition rate against the control value at each concentration of an inhibitor.

Another data set deals with Mouse 11β-HSD1 (Mus musculus, UniProt P50172). In words: Evaluation of compound against mouse 11β-HSD1 (HTRF assay, 11-dehydrocorticosterone substrate). The class given is biochemical. To be noted: 11-dehydrocorticosterone 2 μM, 37° C. 2 hours. As for the experimental part: Evaluation Method of 11β-HSD1 Inhibitor (Evaluation of Compound Against Mouse 11β-HSD1)
as §1, with “dehydrogenase,” for “dehydrogenase”, “30 minutes, 11-dehydrocorticosterone (2” for “30), (Inutes, cortisone (5”, “measured.” for “measured. A cortisol concentration was calculated from a standard curve prepared using a known concentration of cortisol for each assay.”
A corticosterone concentration was calculated from a standard curve prepared using a known concentration of corticosterone for each assay.
Taking a concentration of corticosterone generated in the absence of the inhibitor as a control value, 50% inhibitory concentration (IC50 value) of the inhibitor against 11β-HSD1 was calculated from an inhibition curve plotting inhibition rate against the control value at each concentration of the inhibitor.

Data set [1] in a line: log k′ (degree of lipophilic character) by gradient HPLC. The class given is physicochemical. To be noted: XTerra MS C18 column; acetonitrile/pH6.8 buffer gradient 5:95-95:5/20 min. As for the experimental part:
As to each compound, the measurement results of NMR or log k′ were disclosed.
log k′ is a value which means degree of the lipophilic character, and is calculated by the following formula. log k′=log(tR−t0)/t0 • tR: retention time of compound under gradient condition • t0: retention time of standard material not retained in column
XTerra MS C18 5 μm, 2.1×100 mm column (made by Waters) was used for measurement. The elution was a straight line inclination of acetonitrile/pH6.8 buffer (5:95˜95:5/20 min) at flow velocity 0.25 mL/min.

Chain of Human 11β-HSD1 (P28845 whole entry): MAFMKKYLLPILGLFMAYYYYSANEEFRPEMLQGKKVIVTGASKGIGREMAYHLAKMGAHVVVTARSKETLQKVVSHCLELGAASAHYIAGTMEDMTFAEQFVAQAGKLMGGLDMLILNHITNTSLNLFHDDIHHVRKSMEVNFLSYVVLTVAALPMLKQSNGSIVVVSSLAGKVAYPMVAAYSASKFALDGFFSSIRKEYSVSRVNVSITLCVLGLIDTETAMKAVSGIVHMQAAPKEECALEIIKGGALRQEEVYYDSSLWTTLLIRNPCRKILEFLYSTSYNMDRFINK
Chain of Mouse 11β-HSD1 (P50172 whole entry): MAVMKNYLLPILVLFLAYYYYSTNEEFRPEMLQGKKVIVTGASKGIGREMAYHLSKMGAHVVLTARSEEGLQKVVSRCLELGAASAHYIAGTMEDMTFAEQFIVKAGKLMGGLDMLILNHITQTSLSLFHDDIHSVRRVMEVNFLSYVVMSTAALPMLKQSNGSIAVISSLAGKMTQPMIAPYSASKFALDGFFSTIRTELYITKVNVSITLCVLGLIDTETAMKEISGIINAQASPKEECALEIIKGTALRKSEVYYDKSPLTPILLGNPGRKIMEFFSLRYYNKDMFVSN

For the molecule `CC(C)COc1c(C(=O)N[C@H]2C3CC4CC2C[C@](OC(N)=O)(C4)C3)cnn1/C=C/C(C)(C)C#N` [Compound I-7], the IC50 (usually the midpoint of a concentration-inhibition curve) against Human 11β-HSD1 worked out at 3.4 nM; at Mouse 11β-HSD1, 0.41 nM.
The corresponding values for `CC(C)COc1c(C(=O)N[C@H]2C3CC4CC2C[C@](OC(N)=O)(C4)C3)cnn1/C=C/C(C)(C)NS(C)(=O)=O` [Compound I-9] are 11 nM and 1.7 nM.
The corresponding values for `CC(C)COc1c(C(=O)N[C@H]2C3CC4CC2C[C@](O)(C4)C3)cnn1/C=C/C(C)(C)NC(=O)CCC1CCCC1` [Compound I-36] are 1.2 nM and 1 nM.
`CC(C)COc1c(C(=O)N[C@H]2C3CC4CC2C[C@](CO)(C4)C3)cnn1/C=C/C(C)(C)C(N)=O` [Compound I-63]: the figures for the IC50 against Human 11β-HSD1 and on Mouse 11β-HSD1 were 1.4 nM and 0.21 nM, respectively.
The corresponding values for `CC(C)COc1c(C(=O)NC2C3CC4CC2CC(O)(C4)C3)cnn1C=CC(C)(C)NC(=O)COCc1ccccc1` (stereo not shown) [Compound I-77] are 0.62 nM and 0.23 nM.
Consider `CC(C)COc1c(C(=O)N[C@H]2C3CC4CC2C[C@](O)(C4)C3)cnn1/C=C/C(C)(C)NC(=O)N1CCOCC1` [Compound I-81], for which, in data set [1], the “log k′” value is reported as 0.813.
As for `CC(C)COc1c(C(=O)NC2C3CC4(O)CC2CC(O)(C3)C4)cnn1/C=C/C(C)(C)C(N)=O` (stereo not shown) [Compound I-82], in data set [1], the “log k′” value was 0.682.
Same read-out and setting: in the case of `CC(C)COc1c(C(=O)N[C@H]2C3CC4CC2C[C@](COC(N)=O)(C4)C3)cnn1/C=C/C(C)(C)C(=O)NC(N)=O` [Compound I-83] it was 0.87.
Turning to `CC(=O)NC(C)(C)/C=C/n1ncc(C(=O)N[C@H]2C3CC4CC2C[C@](CO)(C4)C3)c1CC(C)C` [Compound I-121], the IC50 came to 154 nM against Human 11β-HSD1 and 4.9 nM against Mouse 11β-HSD1.
`COC(=O)NC(C)(C)/C=C/n1ncc(C(=O)N[C@H]2C3CC4CC2C[C@](OC(N)=O)(C4)C3)c1-c1ccccc1` [Compound I-127]: the IC50 against Human 11β-HSD1 was found to be 88.1 nM; against Mouse 11β-HSD1 it was 3 nM.
The corresponding values for `COC(=O)NC(C)(C)/C=C/n1ncc(C(=O)N[C@H]2C3CC4CC2C[C@](F)(C4)C3)c1-c1ccccc1` [Compound I-128] are 62.4 nM and 5.5 nM.
Taken in the same sequence, the figures for `CC(=O)NC(C)(C)/C=C/n1ncc(C(=O)N[C@H]2C3CC4CC2C[C@](CO)(C4)C3)c1-c1ccccc1` [Compound I-131] were 20.8 nM and 1.4 nM.
The corresponding values for `COC(=O)NC(C)(C)/C=C/n1ncc(C(=O)N[C@H]2C3CC4CC2C[C@](O)(C4)C3)c1-n1cccn1` [Compound I-133] are 75.6 nM and 0.52 nM.
With `COC(=O)NC(C)(C)/C=C/n1ncc(C(=O)NC2C3CC4CC2CC(COC(N)=O)(C4)C3)c1-n1cccn1` (stereo not shown) [Compound I-139], the IC50 came out at 64.4 nM at Human 11β-HSD1 and 0.37 nM on Mouse 11β-HSD1.
